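1) Cells in 96-well plates. 2) Compound, 48 h, 5 concentrations. 3) Linear interpolation between surrounding doses. 4) Unreached endpoint = highest concentration. At the TGI there is no net growth.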
Key:
Experiment in all cases: NCI anticancer screen, dose series, 48 h
SNB-75 CNS = test system: SNB-75 CNS
COLO 205 colon = test system: COLO 205 colon
MOLT-4 leukemia = test system: MOLT-4 leukemia
SK-MEL-28 melanoma = test system: SK-MEL-28 melanoma
NCI-H522 lung = test system: NCI-H522 lung
SK-MEL-5 melanoma = test system: SK-MEL-5 melanoma
HL-60(TB) leukemia = test system: HL-60(TB) leukemia
LOX IMVI melanoma = test system: LOX IMVI melanoma
SNB-19 CNS = test system: SNB-19 CNS
NCI-H460 lung = test system: NCI-H460 lung
K-562 leukemia = test system: K-562 leukemia
HOP-92 NSCLC = test system: HOP-92 NSCLC
NCI-H226 lung = test system: NCI-H226 lung
OVCAR-5 ovarian = test system: OVCAR-5 ovarian
UO-31 renal = test system: UO-31 renal
RPMI-8226 leukemia = test system: RPMI-8226 leukemia
SF-295 CNS = test system: SF-295 CNS
HCC-2998 colon = test system: HCC-2998 colon
SR leukemia = test system: SR leukemia
KM12 colon = test system: KM12 colon
UACC-257 melanoma = test system: UACC-257 melanoma
RXF 393 renal = test system: RXF 393 renal
SK-MEL-2 melanoma = test system: SK-MEL-2 melanoma
ACHN renal = test system: ACHN renal
BT-549 breast = test system: BT-549 breast
CCRF-CEM leukemia = test system: CCRF-CEM leukemia
TK-10 renal = test system: TK-10 renal
OVCAR-3 ovarian = test system: OVCAR-3 ovarian
PC-3 prostate = test system: PC-3 prostate
HCT-15 colon = test system: HCT-15 colon
HOP-62 NSCLC = test system: HOP-62 NSCLC
U251 CNS = test system: U251 CNS
CAKI-1 renal = test system: CAKI-1 renal
MDA-MB-231 breast = test system: MDA-MB-231 breast
T-47D breast = test system: T-47D breast
MDA-N = test system: MDA-N
NCI/ADR-RES ovarian = test system: NCI/ADR-RES ovarian
A498 renal = test system: A498 renal
DU-145 prostate = test system: DU-145 prostate
786-0 renal = test system: 786-0 renal
MCF7 breast = test system: MCF7 breast
HT29 colon = test system: HT29 colon
EKVX NSCLC = test system: EKVX NSCLC
IGROV1 ovarian = test system: IGROV1 ovarian
OVCAR-8 ovarian = test system: OVCAR-8 ovarian
SK-OV-3 ovarian = test system: SK-OV-3 ovarian
SF-268 CNS = test system: SF-268 CNS
NCI-H23 lung = test system: NCI-H23 lung
M14 melanoma = test system: M14 melanoma
HS 578T breast = test system: HS 578T breast
UACC-62 melanoma = test system: UACC-62 melanoma
OVCAR-4 ovarian = test system: OVCAR-4 ovarian
SN12C renal = test system: SN12C renal
HCT-116 colon = test system: HCT-116 colon
MDA-MB-435 = test system: MDA-MB-435
A549 NSCLC = test system: A549 NSCLC
SF-539 CNS = test system: SF-539 CNS
SW-620 colon = test system: SW-620 colon
MALME-3M melanoma = test system: MALME-3M melanoma

COC(=O)C(CCC1C=CN(S(=O)(=O)c2ccc(C)cc2)C1)N=Cc1ccccc1 (centres undefined)
TGI (SNB-75 CNS): > 100 µM
TGI (COLO 205 colon): 41.1 µM
TGI (MOLT-4 leukemia): > 100 µM
TGI (SK-MEL-28 melanoma): > 100 µM
TGI (NCI-H522 lung): > 100 µM
TGI (SK-MEL-5 melanoma): 53.9 µM
TGI (HL-60(TB) leukemia): 22.1 µM
TGI (LOX IMVI melanoma): > 100 µM
TGI (SNB-19 CNS): > 100 µM
TGI (NCI-H460 lung): > 100 µM
TGI (K-562 leukemia): > 100 µM
TGI (HOP-92 NSCLC): > 100 µM
TGI (NCI-H226 lung): > 100 µM
TGI (OVCAR-5 ovarian): > 100 µM
TGI (UO-31 renal): > 100 µM
TGI (RPMI-8226 leukemia): 82 µM
TGI (SF-295 CNS): > 100 µM
TGI (HCC-2998 colon): > 100 µM
TGI (SR leukemia): 61.1 µM
TGI (KM12 colon): > 100 µM
TGI (UACC-257 melanoma): > 100 µM
TGI (RXF 393 renal): > 100 µM
TGI (SK-MEL-2 melanoma): 49.6 µM
TGI (ACHN renal): > 100 µM
TGI (BT-549 breast): > 100 µM
TGI (CCRF-CEM leukemia): > 100 µM
TGI (TK-10 renal): > 100 µM
TGI (OVCAR-3 ovarian): > 100 µM
TGI (PC-3 prostate): > 100 µM
TGI (HCT-15 colon): > 100 µM
TGI (HOP-62 NSCLC): > 100 µM
TGI (U251 CNS): > 100 µM
TGI (CAKI-1 renal): > 100 µM
TGI (MDA-MB-231 breast): > 100 µM
TGI (T-47D breast): > 100 µM
TGI (MDA-N): > 100 µM
TGI (NCI/ADR-RES ovarian): > 100 µM
TGI (A498 renal): > 100 µM
TGI (DU-145 prostate): > 100 µM
TGI (786-0 renal): > 100 µM
TGI (MCF7 breast): > 100 µM
TGI (HT29 colon): > 100 µM
TGI (EKVX NSCLC): > 100 µM
TGI (IGROV1 ovarian): > 100 µM
TGI (OVCAR-8 ovarian): > 100 µM
TGI (SK-OV-3 ovarian): > 100 µM
TGI (SF-268 CNS): > 100 µM
TGI (NCI-H23 lung): 63 µM
TGI (M14 melanoma): > 100 µM
TGI (HS 578T breast): > 100 µM
TGI (UACC-62 melanoma): > 100 µM
TGI (OVCAR-4 ovarian): > 100 µM
TGI (SN12C renal): > 100 µM
TGI (HCT-116 colon): > 100 µM
TGI (MDA-MB-435): > 100 µM
TGI (A549 NSCLC): > 100 µM
TGI (SF-539 CNS): > 100 µM
TGI (SW-620 colon): > 100 µM

CC1=c2c(oc3cc(O)c(Nc4c(C)cc(O)cc4O)c(C)c23)=CC(=O)C1=Nc1c(C)cc(O)cc1O
TGI (SNB-75 CNS): 88.3 µM
TGI (COLO 205 colon): 42.1 µM
TGI (MOLT-4 leukemia): > 100 µM
TGI (SK-MEL-28 melanoma): > 100 µM
TGI (NCI-H522 lung): 63.1 µM
TGI (SK-MEL-5 melanoma): 35.1 µM
TGI (SNB-19 CNS): > 100 µM
TGI (NCI-H460 lung): > 100 µM
TGI (K-562 leukemia): > 100 µM
TGI (HOP-92 NSCLC): > 100 µM
TGI (NCI-H226 lung): > 100 µM
TGI (OVCAR-5 ovarian): > 100 µM
TGI (UO-31 renal): > 100 µM
TGI (RPMI-8226 leukemia): > 100 µM
TGI (SF-295 CNS): 70.1 µM
TGI (HCC-2998 colon): 55.7 µM
TGI (SR leukemia): > 100 µM
TGI (KM12 colon): 94 µM
TGI (UACC-257 melanoma): > 100 µM
TGI (RXF 393 renal): > 100 µM
TGI (SK-MEL-2 melanoma): > 100 µM
TGI (ACHN renal): > 100 µM
TGI (BT-549 breast): > 100 µM
TGI (TK-10 renal): > 100 µM
TGI (OVCAR-3 ovarian): 55.3 µM
TGI (PC-3 prostate): > 100 µM
TGI (HCT-15 colon): > 100 µM
TGI (HOP-62 NSCLC): > 100 µM
TGI (U251 CNS): > 100 µM
TGI (CAKI-1 renal): > 100 µM
TGI (MDA-MB-231 breast): > 100 µM
TGI (T-47D breast): > 100 µM
TGI (MDA-N): 40 µM
TGI (NCI/ADR-RES ovarian): > 100 µM
TGI (A498 renal): > 100 µM
TGI (DU-145 prostate): > 100 µM
TGI (786-0 renal): > 100 µM
TGI (MCF7 breast): > 100 µM
TGI (HT29 colon): 94.9 µM
TGI (EKVX NSCLC): > 100 µM
TGI (IGROV1 ovarian): > 100 µM
TGI (OVCAR-8 ovarian): > 100 µM
TGI (SK-OV-3 ovarian): > 100 µM
TGI (SF-268 CNS): > 100 µM
TGI (MALME-3M melanoma): 54.3 µM
TGI (NCI-H23 lung): 50.4 µM
TGI (M14 melanoma): 85.3 µM
TGI (HS 578T breast): > 100 µM
TGI (UACC-62 melanoma): > 100 µM
TGI (OVCAR-4 ovarian): > 100 µM
TGI (SN12C renal): 73.7 µM
TGI (HCT-116 colon): 68.5 µM
TGI (MDA-MB-435): 33.5 µM
TGI (A549 NSCLC): > 100 µM
TGI (SF-539 CNS): 56.3 µM
TGI (SW-620 colon): > 100 µM

From PubChem BioAssay (NCI)
